Experiment [1] has as its system memory CD4+ T cells. The experiment can be described thus: Ex vivo detection of peptide-reactive T cells by multiplex HLA class II tetramers. The class given is cell-based, human. The conditions noted are these: peripheral blood, RA n=9, HC n=7. As to the method: Recombinant HLA-DRB1*04:01 protein was produced by the BRI Tetramer Core (Benaroya Research Institute, Seattle, WA) as previously described (Novak et al. 1999 J Clin Inv.104:R63). Soluble HLA-DRB1*04:01 monomer was purified from insect cell culture supernatants and biotinylated at a sequence-specific site using biotin ligase (Avidity) prior to dialysis into phosphate storage buffer. The biotinylated monomer was loaded with 0.2 mg/ml of peptide by incubating at 37° C. for 72 hours in the presence of 2.5 mg/ml n-octyl-β-D-glucopyranoside and 1 mM Pefabloc SC (Sigma-Aldrich). […]
Ex vivo tetramer staining and enrichment was accomplished using previously published protocols (Rims et al. 2019 Arthritis Rheumatol. 71:518; Uchtenhagen et al. 2016 Nat Comm 7:12614). […] Samples were run on a BD LSRII flow cytometer, and data was analyzed using FlowJo software version 10. The frequency (F) of epitope-specific T cells per million memory CD4+ T cells was calculated as follows: F=(1,000,000×tetramer-positive events from enriched tube)/(100×number of memory CD4+ T cells from the “Pre” fraction). […] These served as the parent populations from which one of the four tetramer positive T-cell populations were then gated on and analyzed for surface receptor expression. […]

The target of experiment [2] is HLA-DRB1*04:01 (Homo sapiens, UniProt P01903+P01911, A100K/A169T/F76Y/I96L/K127E/L162R/M171V/N62H/P40V/Q125Y/R42H/S133A/S149N/S66Y/V115G/V209L/W38E). The experiment is described as follows: Peptide competition binding assay to HLA-DRB1*04:01. Conditions: competition with 0.01 μM biotinylated influenza HA306-318.
The subject of experiment [3] is antibodies in sera from RA and HC subjects. The experiment can be described thus: ELISA for detection of serum antibodies against peptides. The class given is binding, human. The conditions noted are these: for antibody reactivity relative to threshold for positivity: Autoantibody Cohort 2. How it is done:
ELISAs were used to detect antibodies against citrullinated peptides in sera from patients in Autoantibody Cohorts 1 and 2 (FIG. 6). Peptides used in the assay were synthesized by either GenScript or Pepceutical and are described in FIG. 12. The ELISAs were conducted as previously described (Riedl et al. 2001 Int J Colorectal Dis.16:285; Quarona et al. 2013 Cytometry Part B, Clinical cytometry 84:207). In brief, 96-well Nunc Maxisorp plates were coated with 10 μg/ml peptide in PBS, blocked with 2% BSA and incubated with sera diluted 1:100. Bound antibodies were detected with an HRP-conjugated anti-human IgG Fc monoclonal antibody (6043HRP, Stratech). A standard curve of positive sera was used to calculate relative antibody titers in arbitrary units (AU) for each sample. The CCP2 ELISA for Autoantibody Cohort 1 was performed as by the manufacturer's instruction (FCCP600, Axis-Shield). Cross-reactivity was analyzed in human sera that were reactive to both cTNC56 or cTNC17 and cTNC5. Sera were diluted 1:100, incubated with 1, 10 and 100 μg/ml of peptides for 2 hours, centrifuged at 10,000 g for 10 min and the supernatant added to peptide-coated plates for analysis by ELISA as described above. Positivity was defined by the cut-off of the 98% percentile of healthy control samples from Autoantibody Cohort 1.
On the technique in general: In an ELISA, binding on a coated surface is turned into a signal by an enzyme label.

In experiment [4] the test system is peripheral blood mononuclear cells (PBMC) from HLA-DRB1*04:01 positive subjects. The experiment is described as follows: In vitro expansion of peptide-specific T cells and HLA class II tetramer staining. The class given is cell-based, human. Conditions: two weeks of in vitro expansion, 10 μg/ml peptide. How it is done: Recombinant HLA-DRB1*04:01 protein was produced by the BRI Tetramer Core (Benaroya Research Institute, Seattle, WA) as previously described (Novak et al. 1999 J Clin Inv.104:R63). Soluble HLA-DRB1*04:01 monomer was purified from insect cell culture supernatants and biotinylated at a sequence-specific site using biotin ligase (Avidity) prior to dialysis into phosphate storage buffer. The biotinylated monomer was loaded with 0.2 mg/ml of peptide by incubating at 37° C. for 72 hours in the presence of 2.5 mg/ml n-octyl-β-D-glucopyranoside and 1 mM Pefabloc SC (Sigma-Aldrich). Peptide loaded monomers were conjugated into tetramers using fluorescently labeled streptavidin (Invitrogen) for 6-18 hours at room temperature at a molar ratio of 8:1.
Cryopreserved PBMCs from RA and healthy subjects were cultured at 5×10^6 cells/well in a 48 well plate in RPMI-1640+10% HPS with 10 μg/ml of peptide. IL-2 (Novartis) was added at 325 IU/ml on day 6. On day 14, cells were stained for expression of tetramer-PE, CD25 APC (BD) and CD4 FITC (BioLegend), and then characterized by immunocytofluorimetry on a FACSCanto™ (BD). The data were analyzed by FlowJo software version 10.

Experiment [5] deals with CCP-reactive antibody (ACPA) pools from plasma and synovial fluid. The experiment can be described thus: Extracellular matrix peptide microarray with polyclonal CCP-pools. It is filed as binding, human. The conditions noted are these: ACPA pools at 15 μg/ml. As to the method:
The custom-made microarray was performed as previously described (Steen et al. 2019 Arthritis Rheumatol. 71:196). In brief, 16-aa long peptides that covered all arginine residues of 1,610 extracellular matrix proteins and RA related proteins were synthesized in situ (Roche NimbleGen). For tenascin C, there were a total of 217 peptides including both native and citrullinated variants of each peptide synthesized. Samples tested for reactivity against TNC derived peptides included synovial and plasma ACPA pools containing CCP-reactive antibodies from 26 and 38 RA patients, respectively (Ossipova et al. 2014 Arthritis Res Ther. 16:R167; Sahlström et al. 2020 Arthritis Rheumatol. 72:1643) Paired synovial fluid and serum samples from one RA patient taken at two time points 10 years apart were also screened. ACPA pools were run at a concentration of 15 μg/ml, whereas synovial fluid and plasma or serum samples were diluted 1/100 and tested for citrulline reactivity using a NimbleGen MS200 Scanner (Roche NimbleGen). A peptide signal intensity variation (spot size) of pixels was used as a basis for calculating the median fluorescence intensities. The cutoff for positive signals was defined as 5 times the fluorescence intensity of the 98th percentile of values for a set of monoclonal antibodies without citrulline reactivity. […]

The target in experiment [6] is T1, HLA-DRB1*04:01 (human).
T1 construct: MHC class II molecule; also called HLA-DR protein; recombinant HLA-DRB1*04:01 protein
The experiment can be described thus: peptide competition assay against biotinylated HA306-318.

Where no end group is shown, it is not given here. [ ]: non-standard residue; d: D form. Cit = NC(=O)NCCC[C@H](N)C(=O)O

The values below come from patent US20240294586A1, “TENASCIN-C AUTOANTIGENIC EPITOPES IN RHEUMATOID ARTHRITIS” (Benaroya Research Institute at Virginia Mason, priority 2020, published 2024).

As for “MP 97-116: influenza peptide used as positive control (VKLYRKLKREITFHGAKEIS; Matrix protein 1; UniProt P03485 97-116, looked up, fragment) [reference compound]”, in experiment [1], the “frequency of peptide-specific memory CD4+ T cells in RA compared to HC subjects” value was “did not differ between RA and HC subjects”.

Regarding “arg-TNC17: corresponding unmodified arginine-containing peptide of cit-TNC17 (VSLISRRGDMSSNPA)”, the “binding to HLA-DRB1*04:01” value in experiment [2] was “did not”. Moreover, the “antibody reactivity relative to threshold for positivity” value in experiment [3] was “below the threshold for positivity in almost all subjects”.

As for “arg-TNC22: corresponding unmodified arginine-containing peptide of cit-TNC22 (FDRYRLNYSLPTGQW)”, in experiment [2], the “binding to HLA-DRB1*04:01” value is recorded as “bound”. The “immunogenicity: epitope-specific T cell expansion by HLA Class II tetramer staining” value in experiment [4] was “ability to elicit T cell responses”.

With “arg-TNC45: corresponding unmodified arginine-containing peptide of cit-TNC45 (PDGFRLSWTADEGVF)”, the “binding to HLA-DRB1*04:01” value in experiment [2] is “bound”. The “immunogenicity: epitope-specific T cell expansion by HLA Class II tetramer staining” value in experiment [4] is reported as “ability to elicit T cell responses”.

As for “arg-TNC56: corresponding unmodified arginine-containing peptide of cit-TNC56 (QGQYELRVDLRDHGE)”, the “binding to HLA-DRB1*04:01” value in experiment [2] is “did not”. The “antibody reactivity relative to threshold for positivity” value in experiment [3] was “below the threshold for positivity in almost all subjects”.

On to “cit-TNC5: previously published citrullinated peptide from the C-terminal FBG domain of TNC, used as positive control (CEHSIQFAEMKL[Cit]PSNF[Cit]NLEG[Cit][Cit]KRC; not fully specified; cysteine pairing not given here) [reference compound]”, for which the “RA sera with antibodies to the peptide” value in experiment [3] (Autoantibody Cohort 1, HLA-DRB1*04:01 and CCP positive RA n=17) is 47%. Also, in experiment [3] (Autoantibody Cohort 1, sera diluted 1:100), the “antibody titers / reactivity in RA sera” value is “highest”. In experiment [5], the “antibody reactivity in plasma CCP-pool” value is reported as “could be verified” and the “antibody reactivity in synovial fluid derived antibody pools” value was “strong positive signal”.

B1: arg-TNC17 (peptide)
peptide: VSLISRRGDMSSNPA
modifications: not fully specified
As to B1, the binding result in experiment [6] is “no binding”.

B2: arg-TNC56 (peptide)
peptide: QGQYELRVDLRDHGE
modifications: not fully specified
notes: See note of arg-TNC17
In the case of B2, the binding result in experiment [6] is reported as “no binding”.
